Results reported in patent US20250041429A1, “COMPOUND HAVING BTK PROTEIN DEGRADATION ACTIVITY, AND MEDICAL USES THEREOF” (UBIX THERAPEUTICS, INC., priority 2021, published 2025).

Molecular target: T1, BTK protein (Homo sapiens, UniProt Q06187)
T1 construct: endogenous in cells; host or cells: TMD-8 cells
Test: Measurement of BTK protein degradation ability in TMD-8 cells (Western blotting)
Format: cell-based
Conditions: harvested after 24 hours; for BTK degradation (%) 10 nM: compound 10 nM; for BTK degradation (%) 100 nM: compound 100 nM; for BTK degradation (%) 1 nM: compound 1 nM
Experimental: TMD-8, RAMOS, or 293T BTK MUT (C481S) cells were treated with the synthesized compounds, and then the amount of BTK protein present in the cells was measured using Western blotting detection. The protocol for the experiment conducted using TMD-8 cells was as follows:
[Culture] TMD-8 cells were resuspended in RPMI1640 MEDIUM (Hyclone, SH30027.01), 10% FBS (Hyclone, SV30207.02), and 1% Penicillin-streptomycin (Welgene, LS 202-02) media, and 1 mL of this suspension was seeded in a 12-well plate at a cell concentration of 1×10^6/mL.
[Compound treatment] The 12-well plate was treated as follows: The 10 mM stock was serially diluted 1/10 with DMSO (3 μL+27 μL DMSO), and cells were treated with compounds at final concentrations of 0.1, 1, 10 μM or 0.0001, 0.001, 0.01, 0.1 μM, and harvested after 24 hours. In the negative control group, DMSO diluted 1/10 was added to the media. (3 μL DMSO+27 μL media)
[Harvest] Each well was pipetted with a 1 mL pipette, collected in a 1.5 mL microtube, and centrifuged (500 g, 5 min, 4° C.). After removing the supernatant, it was washed with PBS and centrifuged again (500 g, 5 min, 4° C.). The supernatant was removed and the pellet was collected.
[Cell lysis and Sample preparation] lysis buffer was prepared as follows: RIPA buffer (Biosesang, RC2038-050-00), 0.5 mM PMSF (SIGMA, P7626) and 1× Protease/Phosphatase Inhibitor (Cell signaling, 5872S) were added at 60-70 μL per well and left on ice for 30 minutes. (Vortexing at 0 and 30 minutes, respectively), followed by sonication (10 seconds pulse, 30 seconds rest, 5 cycles, 70% amplification) and centrifuge (15000 g, 15 min, 4° C.). Only the supernatant was collected and transferred to a new microtube. The samples were diluted by ½ with RIPA buffer in a 96-well plate. 200 μL of the mixture A:B=50:1 of the BCA Protein Assay Kit (iNtRON, 21071) was added each, stayed at 37° C. for 30 minutes, and cooled for 10 minutes. Afterwards, absorbance was measured at 562 nm using BioTek's SYNERGY H1 microplate reader. After making a sample by quantifying the protein using the measured value, it was boiled at 70° C. for 10 minutes. The sample buffer used at this time was a mixture of NuPAGE or Bolt 4× sample buffer (Invitrogen) and each 10× sample reducing agent according to the gel to be used. RIPA buffer was used for protein dilution.
[Western blotting detection method] The same amount of sample was loaded on NuPAGE or Bolt Bis-tris 4-12% gradient gel and run (200 V, 35 minutes). It was transferred to a […] NC membrane using Trans-blot Turbo (BIO-RAD) (1.3 A constant, 25 V limit, 15 minutes). For blocking, skim milk or Intercept Blocking Buffer (LI-COR, 927-60001): 0.1% TBST=1:1 was used at room temperature for 1 hour. Anti BTK Rabbit (1:1,000 in 5% skim milk/0.2% TBST, size: 77 kDa, Cell signaling Technology) was reacted at 4° C. for 16 hours or at room temperature for 2 hours. Anti GAPDH Rabbit (1:10,000 in 5% BSA/0.2% TBST, size: 36 kDa, GENETEX) and Anti β-actin mouse (1:10,000 in 5% BSA/0.2% TBST, RT, size: 43 kDa, GENETEX) were reacted at room temperature for 1 hour or 3 hours. The samples were washed 3 times with 0.5% TBST for 5 minutes each. Secondary antibodies, Anti-Rabbit IgG (1:5,000 in 5% Skim milk/TBST, CST), IRDye® 800CW Goat anti-Rabbit IgG Secondary Antibody (1:10,000 in 5% skim/TBST, RT 45 min), IRDye® 680RD Goat anti-Mouse IgG Secondary Antibody (1:10,000 in 5% skim/TBST, RT 45 min) were added depending on each sample and reacted for 45 minutes on a rocker at room temperature. The samples were washed 5 times with 0.5% TBST for 5 minutes each and detected with LI-COR's Odyssey. At this time, BTK was detected using SuperSignal West Pico PLUS Chemiluminescent Substrate or SuperSignal West femto Maximum Sensitivity Substrate, and house-keeping genes were detected as is.

T1 sequence (Q06187 whole entry): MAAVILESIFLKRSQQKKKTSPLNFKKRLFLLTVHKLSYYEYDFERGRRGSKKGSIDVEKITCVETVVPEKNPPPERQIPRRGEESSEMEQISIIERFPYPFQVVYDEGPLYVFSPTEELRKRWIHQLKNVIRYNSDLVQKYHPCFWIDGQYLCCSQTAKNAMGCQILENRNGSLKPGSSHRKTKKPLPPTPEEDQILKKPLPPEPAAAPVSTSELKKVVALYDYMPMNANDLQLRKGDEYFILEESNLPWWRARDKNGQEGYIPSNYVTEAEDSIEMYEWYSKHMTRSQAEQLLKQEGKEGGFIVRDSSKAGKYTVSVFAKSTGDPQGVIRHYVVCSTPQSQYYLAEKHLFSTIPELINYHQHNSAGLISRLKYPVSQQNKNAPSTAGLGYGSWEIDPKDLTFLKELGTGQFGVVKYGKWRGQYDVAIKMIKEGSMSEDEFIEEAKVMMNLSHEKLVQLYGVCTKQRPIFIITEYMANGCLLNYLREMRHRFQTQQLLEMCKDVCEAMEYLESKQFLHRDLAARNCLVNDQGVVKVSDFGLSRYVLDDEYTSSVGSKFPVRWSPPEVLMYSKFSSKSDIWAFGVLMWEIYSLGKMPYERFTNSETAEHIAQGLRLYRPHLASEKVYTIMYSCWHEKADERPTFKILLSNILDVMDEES

| Compound | BTK degradation (%) 10 nM [%] | BTK degradation (%) 100 nM [%] | BTK degradation (%) 1 nM [%] |
| --- | --- | --- | --- |
| Cc1c(NC(=O)c2cn(C(C)(C)C)nn2)cc(F)cc1-c1ccnc(Nc2ccc(N3CCN(CC4CCN(c5ccc6c(c5)C(=O)N(C5CCC(=O)NC5=O)C6=O)CC4)CC3)cc2)n1 (centres unmarked) [Example 25, 1-(tert-butyl)-N-(3-(2-((4-(4-((1-(2-(2,6-dioxopiperidin-3-yl)-1,3-dioxoisoindolin-5-yl)piperidin-4-yl)methyl)piperazin-1-yl)phenyl)amino)pyrimidin-4-yl)-5-fluoro-2-methylphenyl)-1H-1,2,3-triazole-4-carboxamide] | 8.5 | 24 | – |
| Cc1c(NC(=O)N2CC(OC(C)C)C2)cc(F)cc1-c1ccnc(Nc2ccc(N3CCN(CC4CCN(c5ccc6c(n5)CN(C5CCC(=O)NC5=O)C6=O)CC4)CC3)cc2)n1 (centres unmarked) [Example 26, N-(3-(2-((4-(4-((1-(6-(2,6-dioxopiperidin-3-yl)-5-oxo-6,7-dihydro-5H-pyrrolo[3,4-b]pyridin-2-yl)piperidin-4-yl)methyl)piperazin-1-yl)phenyl)amino)pyrimidin-4-yl)-5-fluoro-2-methylphenyl)-3-isopropoxyazetidine-1-carboxamide] | 76 | 93 | 15.5 |
| Cc1c(NC(=O)N2CC(OC(C)C)C2)cc(F)cc1-c1ccnc(Nc2ccc(N3CCN(CC4CN(c5ccc6c(c5)C(=O)N(C5CCC(=O)NC5=O)C6=O)C4)CC3)cc2)n1 (centres unmarked) [Example 27, N-(3-(2-((4-(4-((1-(2-(2,6-dioxopiperidin-3-yl)-1,3-dioxoisoindolin-5-yl)azetidin-3-yl)methyl)piperazin-1-yl)phenyl)amino)pyrimidin-4-yl)-5-fluoro-2-methylphenyl)-3-isopropoxyazetidine-1-carboxamide] | 71.5 | 94.5 | 26.5 |
| Cc1cc(CNC(=O)N2CC(OC(C)C)C2)cc(-c2ccnc(Nc3ccc(N4CCN(CC5CCN(c6ccc7c(c6)C(=O)N(C6CCC(=O)NC6=O)C7=O)CC5)CC4)cc3)n2)c1 (centres unmarked) [Example 28, N-(3-(2-((4-(4-((1-(2-(2,6-dioxopiperidin-3-yl)-1,3-dioxoisoindolin-5-yl)piperidin-4-yl)methyl)piperazin-1-yl)phenyl)amino)pyrimidin-4-yl)-5-methylbenzyl)-3-isopropoxyazetidine-1-carboxamide] | 12 | 4.5 | 18 |
| Cc1cc(NC(=O)N2CC(OC(C)C)C2)cc(-c2ccnc(Nc3ccc(N4CCN(CC5CCN(c6ccc7c(c6)C(=O)N(C6CCC(=O)NC6=O)C7=O)CC5)CC4)cc3)n2)c1 (centres unmarked) [Example 29, N-(3-(2-((4-(4-((1-(2-(2,6-dioxopiperidin-3-yl)-1,3-dioxoisoindolin-5-yl)piperidin-4-yl)methyl)piperazin-1-yl)phenyl)amino)pyrimidin-4-yl)-5-methylphenyl)-3-isopropoxyazetidine-1-carboxamide] | 40.5 | 81.5 | 7 |
| Cc1cc(-c2ccnc(Nc3ccc(N4CCN(CC5CCN(c6ccc7c(c6)C(=O)N(C6CCC(=O)NC6=O)C7=O)CC5)CC4)cc3)n2)ccc1COC(=O)N1CC(OC(C)C)C1 (centres unmarked) [Example 30, 4-(2-((4-(4-((1-(2-(2,6-dioxopiperidin-3-yl)-1,3-dioxoisoindolin-5-yl)piperidin-4-yl)methyl)piperazin-1-yl)phenyl)amino)pyrimidin-4-yl)-2-methylbenzyl 3-isopropoxyazetidine-1-carboxylate] | 20.5 | 91.5 | −1 |
| Cc1cc(-c2ccnc(Nc3ccc(N4CCN(CC5CN(c6ccc7c(c6)C(=O)N(C6CCC(=O)NC6=O)C7=O)C5)CC4)cc3)n2)ccc1CNC(=O)c1cnn(C(C)(C)C)c1 (centres unmarked) [Example 31, 1-(tert-butyl)-N-(4-(2-((4-(4-((1-(2-(2,6-dioxopiperidin-3-yl)-1,3-dioxoisoindolin-5-yl)azetidin-3-yl)methyl)piperazin-1-yl)phenyl)amino)pyrimidin-4-yl)-2-methylbenzyl)-1H-pyrazole-4-carboxamide] | 94.5 | 98.5 | 61.5 |
| Cc1cc(-c2ccnc(Nc3ccc(N4CCN(CC5CN(c6ccc7c(c6)C(=O)N(C6CCC(=O)NC6=O)C7=O)C5)CC4)cc3)n2)ccc1CNC(=O)c1cn(C(C)(C)C)nn1 (centres unmarked) [Example 32, 1-(tert-butyl)-N-(4-(2-((4-(4-((1-(2-(2,6-dioxopiperidin-3-yl)-1,3-dioxoisoindolin-5-yl)azetidin-3-yl)methyl)piperazin-1-yl)phenyl)amino)pyrimidin-4-yl)-2-methylbenzyl)-1H-1,2,3-triazole-4-carboxamide] | 92 | 98.5 | 58.5 |

More lines, now with the values ahead:

| BTK degradation (%) 10 nM [%] | BTK degradation (%) 100 nM [%] | BTK degradation (%) 1 nM [%] | Compound |
| --- | --- | --- | --- |
| 93.5 | 99.5 | 49.5 | Cc1cc(-c2ccnc(Nc3ccc(N4CCN(CC5CCN(c6ccc7c(c6)C(=O)N(C6CCC(=O)NC6=O)C7=O)CC5)CC4)cc3)n2)ccc1CNC(=O)c1cnn(C(C)C)c1 (centres unmarked) [Example 33, N-(4-(2-((4-(4-((1-(2-(2,6-dioxopiperidin-3-yl)-1,3-dioxoisoindolin-5-yl)piperidin-4-yl)methyl)piperazin-1-yl)phenyl)amino)pyrimidin-4-yl)-2-methylbenzyl)-1-isopropyl-1H-pyrazole-4-carboxamide] |
| 90 | 99.5 | 41 | Cc1cc(-c2ccnc(Nc3ccc(N4CCN(CC5CN(c6ccc7c(c6)C(=O)N(C6CCC(=O)NC6=O)C7=O)C5)CC4)cc3)n2)ccc1CNC(=O)c1cnn(C(C)C)c1 (centres unmarked) [Example 34, N-(4-(2-((4-(4-((1-(2-(2,6-dioxopiperidin-3-yl)-1,3-dioxoisoindolin-5-yl)azetidin-3-yl)methyl)piperazin-1-yl)phenyl)amino)pyrimidin-4-yl)-2-methylbenzyl)-1-isopropyl-1H-pyrazole-4-carboxamide] |
| 93.5 | 99.5 | 50.5 | Cc1cc(-c2ccnc(Nc3cnn(C4CCN(CC5CCN(c6ccc7c(c6)C(=O)N(C6CCC(=O)NC6=O)C7=O)CC5)CC4)c3)n2)ccc1CNC(=O)c1cnn(C(C)C)c1 (centres unmarked) [Example 35, N-(4-(2-((1-(1-((1-(2-(2,6-dioxopiperidin-3-yl)-1,3-dioxoisoindolin-5-yl)piperidin-4-yl)methyl)piperidin-4-yl)-1H-pyrazol-4-yl)amino)pyrimidin-4-yl)-2-methylbenzyl)-1-isopropyl-1H-pyrazole-4-carboxamide] |
| 94 | 99 | 60 | Cc1cc(-c2ccnc(Nc3cnn(C4CCN(CC5CN(c6ccc7c(c6)C(=O)N(C6CCC(=O)NC6=O)C7=O)C5)CC4)c3)n2)ccc1CNC(=O)c1cnn(C(C)C)c1 (centres unmarked) [Example 36, N-(4-(2-((1-(1-((1-(2-(2,6-dioxopiperidin-3-yl)-1,3-dioxoisoindolin-5-yl)azetidin-3-yl)methyl)piperidin-4-yl)-1H-pyrazol-4-yl)amino)pyrimidin-4-yl)-2-methylbenzyl)-1-isopropyl-1H-pyrazole-4-carboxamide] |
